Assay results from patent publication US7179800B2 (priority 2002, dated 2007).
Where “and” joins values, the source holds several entries; their conditions need not be identical. Identical values can stand only once.

Tests used:
Male ICR mice [1] = experiment: Suppression of spontaneous activity (SA) in mice; format: in vivo, mouse
Method: (§1) Male ICR mice (25–32 g), obtained from Harlan (Dublin, Va.), were housed in groups of five. All animals were kept in a temperature-controlled (20–22° C.) environment with a 12-hour light-dark cycle (lights on at 7 a.m.). Separate mice were used for testing each drug dose in the in vivo behavioral procedures. Brain tissue for binding studies was obtained from male Sprague-Dawley rats (150–200 g) purchased from Harlan Laboratories (Dublin, Va.).
(§2) Measurement of spontaneous activity in mice occurred in standard activity chambers interfaced with a Digiscan Animal Activity Monitor (Omnitech Electronics, Inc., Columbus, Ohio). A standard tail-flick apparatus and a digital thermometer (Fisher Scientific, Pittsburgh, Pa.) were used to measure antinociception and rectal temperature, respectively
(§3) Resorcinols were synthesized in our labs (Organix, Inc., Woburn, Mass.) according to the procedure specified below and were suspended in a vehicle of absolute ethanol, Emulphor-620 (Rhone-Poulenc, Inc., Princeton, N.J.), and saline in a ratio of 1:1:18. Drugs were administered to the mice intravenously (i.v.) in the tail vein at a volume of 0.1 ml/10 g.
(§4) Prior to testing in the behavioral procedures, mice were acclimated to the experimental setting (ambient temperature 22–24° C.) overnight. Pre-injection control values were determined for rectal temperature and tail-flick latency (in sec). […] Tail-flick latency was measured at 20 min post-injection. Maximum latency of 10 sec was used. Antinociception was calculated as percent of maximum possible effect {% MPE=[(test−control latency)/(10-control)]×100}. Control latencies typically ranged from 1.5 to 4.0 sec. At 30 min post-injection, rectal temperature was measured This value was expressed as the difference between control temperature (before injection) and temperatures following drug administration (° C.). Different mice (n=5–6 per dose) were tested for each dose of each compound. Each mouse was tested in each of the 3 procedures.
(§5) Based on data obtained from numerous previous studies with cannabinoids, maximal cannabinoid effects in each procedure were estimated as follows: 90% inhibition of spontaneous activity, 100% MPE in the tail flick procedure, and −6° C. change in rectal temperature. ED50's were defined as the dose at which half maximal effect occurred. For drugs that produced one or more cannabinoid effect, ED50's were calculated separately using least-squares linear regression on the linear part of the dose-effect curve for each measure in the mouse tetrad, plotted against log10 transformation of the dose. For the purposes of potency comparison, potencies were expressed as μmol/kg.

Male ICR mice [2] = experiment: Tail-flick antinociception (TF, % MPE) in mice; format: in vivo, mouse; conditions: for T.F. % effect at dose: Table 6, @ 30 (mg/kg)
Method: as §1, §2, §3, §4, §5

Male ICR mice [3] = experiment: Change in rectal temperature (RT) in mice; format: in vivo, mouse; conditions: for R.T. effect at dose: Table 6, @ 30 (mg/kg)
Method: as §1, §2, §3, §4, §5

CB2 receptor = target: T1, CB2 receptor (Homo sapiens, UniProt P34972); experiment: CB2 binding procedure: displacement of [3H]CP-55,940 from membranes of transfected CHO cells; conditions: for CB1/CB2 (ratio of Ki): CB1 Ki divided by CB2 Ki; for Ki: means ± SEM, [3H]CP-55,940, transfected CHO cell membranes, read-out: Ki (nM) CB2
T1 construct: expressed in transfected cells; host or cells: CHO cells, G418-selected transfected line
T1 sequence (P34972 whole entry): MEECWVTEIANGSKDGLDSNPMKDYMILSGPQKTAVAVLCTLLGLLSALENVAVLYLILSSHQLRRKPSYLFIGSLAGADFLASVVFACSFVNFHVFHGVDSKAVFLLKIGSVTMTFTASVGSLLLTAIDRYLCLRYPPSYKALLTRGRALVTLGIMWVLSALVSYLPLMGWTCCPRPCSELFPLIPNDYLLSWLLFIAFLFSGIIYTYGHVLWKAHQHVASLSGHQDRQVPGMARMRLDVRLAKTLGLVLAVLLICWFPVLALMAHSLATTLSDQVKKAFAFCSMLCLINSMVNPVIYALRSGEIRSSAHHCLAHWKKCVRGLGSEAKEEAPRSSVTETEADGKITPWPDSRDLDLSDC
Method: Membranes for CB2 binding were obtained from CHO cells. The transfected cell line was maintained in Dublecco's Modified Eagle Medium (Gibco BRL, Grand Island, N.Y.) with 10% fetal clone II (HyClone Laboratories, Inc., Logan, Utah) plus 0.3 to 0.5 mg/ml G418 (to maintain selective pressure) under 5% CO2 at 37% C. Cells were harvested with 1 mM EDTA in phosphate-buffered saline and were centrifuged at 1000×g for 5 min at 4% C. The supernatant was saved and the P1 pellet was resuspended in centrifugation buffer. Homogenization and centrifugation were repeated twice and the combined supernatant fractions were centrifuged at 40,000×g for 30 min at 4% C. The P2 pellet was resuspended in centrifugation buffer 2 (Tris HCl, 50 mM; EDTA, 1 mM; and MgCl2, 3 mM, pH 7.4) to a protein concentration of approximately 2 mg/ml. Protein concentrations were determined by the method of Bradford (1976) using Bio-Rad Protein Assay (Bio-Rad, Richmond, Calif.) and BSA standards (fatty acid free, Sigma Chemical Co., St. Louis, Mo.). The membrane preparation was divided into amounts convenient for binding assays and frozen rapidly in dry ice and stored at −80% C.
Binding was initiated by the addition of 50 μg of quickly thawed P2 membranes to test tubes containing [^3H]CP-55,940 (final reaction concentration 0.5 nM), an appropriate concentration of unlabeled CP-55,940 or test drug, and sufficient quantity of assay buffer (50 mM Tris-HCl, 1 mM EDTA, 3 mM MgCl2, 5 mg/ml bovine serum albumin, pH 7.4) to bring the total incubation volume to 0.5 ml. Concentration of [^3H]CP-55,940 in saturation studies ranged from 50 to 10,000 pM. Nonspecific binding was determined by the addition of 1 μM unlabeled CP-55,940. CP-55,940 and all cannabinoid analogs were prepared by suspension in assay buffer from a 1 mg/ml ethanolic stock without evaporation of the ethanol (final concentration of no more than 0.4%). In competition studies, analog concentrations ranged from 0.1 nM to 10 μM. After incubation at 30% C for 1 hr, binding was terminated by the addition of 2 ml of ice-cold wash buffer (50 mM Tris-HCl and 1 mg/ml BSA) and vacuum filtration through pre-treated filters in a 12-well sampling manifold (Millipore, Bedford, Mass.). Reaction vessels were washed once with 2 ml of ice-cold wash buffer. Filters were placed into 7-ml plastic scintillation vials (RPI Corp., Mount Prospect, Ill.) with 4 ml of Budget-Solve (RPI Corp.). After shaking for 30 min, the radioactivity present was determined by liquid scintillation spectrometry. Three reaction vessels were used for each drug concentration in each assay. The results represent the combined data of three independent experiments. All assays were performed in siliconized test tubes, which were prepared by air drying (12 hr) inverted borosilicate tubes after two rinses with a 0.1% solution of AquaSil (Pierce, Rockford, Ill.). The GF/C glass-fiber filters (2.4 cm, Baxter, McGaw Park, Ill.) were pre-treated in a 0.1% solution of pH 7.4 polyethylenimine (Sigma Chemical Co.) for at least 6 hr.
(§6) In addition, multiple linear regression was used to calculate the overall degree of relationship between CB1 binding affinity and potency in the mouse measures for all active cannabinoids. […] Ki values for CB1 and CB2 binding were obtained from Scatchard displacement analysis as determined via EBDA program of the KELL software package (Biosoft, Milltown, N.J.).

CB1 receptor = CB1 receptor (Rattus norvegicus, UniProt P20272); experiment: CB1 binding procedure: displacement of [3H]CP 55,940 from rat whole-brain P2 membranes; set-up: whole brain was homogenized and centrifuged; from tissue; host or cells: rat whole brain, P2 membrane fraction; conditions: for Ki: means ± SEM, [3H]CP 55,940, rat brain membranes, read-out: Ki (nM) CB1
Chain of CB1 receptor (P20272 whole entry): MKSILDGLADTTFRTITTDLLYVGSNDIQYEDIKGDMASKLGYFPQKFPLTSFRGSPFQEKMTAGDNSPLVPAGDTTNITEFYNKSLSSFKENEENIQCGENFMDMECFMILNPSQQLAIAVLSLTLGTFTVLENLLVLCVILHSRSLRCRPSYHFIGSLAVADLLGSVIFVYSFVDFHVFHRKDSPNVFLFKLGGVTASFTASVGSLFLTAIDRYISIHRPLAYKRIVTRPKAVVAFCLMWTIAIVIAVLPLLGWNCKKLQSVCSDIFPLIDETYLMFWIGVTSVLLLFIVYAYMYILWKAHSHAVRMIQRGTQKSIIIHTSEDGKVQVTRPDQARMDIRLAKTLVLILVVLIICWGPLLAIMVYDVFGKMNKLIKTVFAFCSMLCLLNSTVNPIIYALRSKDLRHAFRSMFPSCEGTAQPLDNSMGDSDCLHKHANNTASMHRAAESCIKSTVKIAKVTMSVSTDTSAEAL
Method: as §1
The methods used for tissue preparation and binding have been described previously (Compton et al., 1993) and are similar to those described by Devane et al. (1988). All assays, as described briefly below, were performed in triplicate, and the results represent the combined data from three to six individual experiments.
Following decapitation and rapid removal of the brain, whole brain was homogenized and centrifuged. The resulting pellet was termed P1. The supernatant was saved and combined with the two subsequent supernatants obtained from washing of the P1 pellet. The combined supernatant fractions were centrifuged, resulting in the P2 pellet. After further incubation and centrifuging, this pellet was resuspended in assay buffer to a protein concentration of approximately 2 mg/ml. The membrane preparation was quickly frozen in a bath solution of dry ice and 2-methylbutane (Sigma Chemical Co., St. Louis, Mo.), then stored at −80° C. for no more than 2 weeks. Prior to performing a binding assay an aliquot of frozen membrane was rapidly thawed and protein values determined by the method of Bradford (1976).
Binding was initiated by the addition of 150 μg of P2 membrane to test tubes containing 1 nM of [^3H] CP 55,940 (79 Ci/mmol) and a sufficient quantity of buffer to bring the total incubation volume to 1 ml. Nonspecific binding was determined by the addition of 1 μM unlabeled CP 55,940. Following incubation at 30° C. for 1 hr, binding was terminated by addition of ice cold buffer and vacuum filtration through pretreated filters in a 12-well sampling manifold (Millipore, Bedford, Mass.). After washing, filters were placed into plastic scintillation vials (Packard, Downer Grove, Ill.) and shaken. The quantity of radioactivity present was determined by liquid scintillation spectrometry.
as §6

[4] = relative to the comparator analog

Structure (SMILES)	CB1/CB2 (ratio of Ki) (CB2 receptor)	Ki (CB2 receptor)	Ki (CB1 receptor) [nM]	other results
C=C(C)[C@@H]1CCC(C)=C[C@H]1c1c(C)cc(O)cc1O (single isomer, unassigned) [O-1602]				S.A % effect at dose, stim. (Male ICR mice [1]; Table 6, stimulation, @ 30 (mg/kg)): 66% stim.; T.F. % effect at dose (Male ICR mice [2]): 0 @ 30%; R.T. effect at dose (Male ICR mice [3]): 0.3 @ 30 °C
CCCCCCC(C)(C)c1cc(OC)c(C2(O)CCC(O)CC2)c(OC)c1 (single isomer, unassigned) [O-2116A]	21	190 ± 17 nM	3930 ± 483	
CCCCCCC(C)(C)c1cc(OC)c(C2(O)CCC(O)CC2)c(OC)c1 (single isomer, unassigned) [O-2117B]		1560 ± 70 nM	> 10000	
CCCCCCC(C)(C)c1cc(OC)c(C2(O)CCCC(C)C2)c(OC)c1 (single isomer, unassigned; isomer 1) [O-1966A, 1-(4-(1,1-Dimethylheptyl-2,6-dimethoxy-phenyl)-3-methyl-cyclohexanol isomer 1]	220	22.5 nM and 23 nM	5060 ± 984	CB2 selectivity (CB2 receptor): 225 fold; T.F. % effect at dose (Male ICR mice [2]): 5.1 @ 30%; R.T. effect at dose (Male ICR mice [3]): 0.5 @ 30 °C
CCCCCCC(C)(C)c1cc(OC)c(C2CCOCC2)c(OC)c1 [O-1964, 4-(4-(1,1-Dimethylheptyl)-2,6-dimethoxy-phenyl)-tetrahydro-pyran]		911 ± 116 nM	> 10000	fold decrease in CB2 affinity (CB2 receptor; [4]): ~2 fold; T.F. % effect at dose (Male ICR mice [2]): 30% @ 30
CCCCCCC(C)(C)c1cc(OC)c(C2=CCOCC2)c(OC)c1 [O-1965, 4-(4-(1,1-Dimethylheptyl)-2,6-dimethoxy-phenyl)-3,6-dihydro-2H-pyran]		> 10000 nM	> 10000	
CCCCCCc1ccc(O)c(C2CCCCC2)c1O [O-2010, 2-Cyclohexyl-4-hexyl resorcinol]			9510 ± 332	SA percent effect at the highest dose (Male ICR mice [1]; mice, i.v., 30 mg/kg, % inhibition of activity of vehicle group): −18%(30); T.F. % effect at dose (Male ICR mice [2]): 9.0% @ 30; TF percent effect (% MPE) at the highest dose (Male ICR mice [2]; mice, i.v., 30 mg/kg): 9%(30); RT effect at the highest dose (change in rectal temperature) (Male ICR mice [3]; mice, i.v., 30 mg/kg): −0.4(30) °C; fold decrease in CB1 affinity (CB1 receptor; [4]): 865 fold
CCCCCCC(C)(C)c1cc(OC)c(C2(O)CCCC(C)(C)C2)c(OC)c1 (centres unmarked) [O-2068]	47	161 ± 24 nM	7510 ± 721	
CCCCCCC(C)(C)c1cc(OC)c(C2(O)CCCCC2)c(OC)c1 [O-2072]	55	105 ± 19 nM	5820 ± 662	
CCCCCCC(C)(C)c1cc(OCC)c(C2(O)CCCC(C)C2)c(OCC)c1 (centres unmarked) [O-2090]	10	858 ± 43 nM	8810 ± 422	
CCCCCCC(C)(C)c1cc(OC)c(C2(O)CCCCCC2)c(OC)c1 [O-2091, 1-(4-(1,1-Dimethylheptyl)-2,6-dimephenyl)-cycloheptan-1-ol]	50	64 ± 8 nM	3200 ± 141	fold increase in CB2 affinity (CB2 receptor; [4]): ~2 fold
CCCCCCC(C)(C)c1cc(OC)c(C2(O)CCC3(CC2)OCCO3)c(OC)c1 [O-2092, 8-(4-(1,1-Dimethylheptyl)-2,6-dimphenyl)-1,4-dioxaspiro(4,5)decan-]	36	126 ± 12 nM	4580 ± 312	
CCCCCCC(C)(C)c1cc(OC)c(C2=CCC(=O)CC2)c(OC)c1 [O-2114, 4-(4-(1,1-O-methyl-heptyl)-2,6-dimethoxy-phenyl)-cyclohex-3-enone]	5	1770 ± 184 nM	8440 ± 954	
CCCCCCC(C)(C)c1cc(OC)c(C2(O)CCC(=O)CC2)c(OC)c1 [O-2115]	13	346 ± 49 nM	4570 ± 173	
CCCCCCC(C)(C)c1cc(OC)c(C2(O)CC(C)CC(O)C2)c(OC)c1 (centres unmarked) [O-2121]	20	101 ± 14 nM	1990 ± 77	
COc1cc(C)cc(OC)c1C1(O)CCCC(C)(C)C1 (centres unmarked) [O-2139, 1-(2,6-Dimethyoxy-methyl-phenyl)-3,3-dimethyl-cyclo-hexanol]		> 10000 nM	> 10000	
